The values that follow come from ChEMBL document CHEMBL3044929, “Insecticidal activity of sesquiterpenes skeleton synthesized by the conventional Robinson annulations reaction on Drosophila melanogaster” (2013).

Broadly, the mortality is the percentage killed. What is called inhibition is the share of the control response that was lost under treatment. A high value points to a strong effect.

In test [1] the test system is Drosophila melanogaster. The experiment in a line: Insecticidal activity against first-instar larval stage of Drosophila melanogaster fed with artificial diet containing compound assessed as mortality at 8.3 umol/ml measured after 48 hr (reference value: 0%). The class given is functional.
Test [2] concerns Drosophila melanogaster. The experiment in a line: Insecticidal activity against first-instar larval stage of Drosophila melanogaster fed with artificial diet containing compound assessed as mortality at 18.3 umol/ml measured after 48 hr (reference value: 0%). The format is functional.
For test [3], the system named is Drosophila melanogaster. The experiment in a line: Insecticidal activity against first-instar larval stage of Drosophila melanogaster fed with artificial diet containing compound assessed as mortality at 8.3 umol/ml measured after 120 hr. The format is functional.
In test [4] the test system is Drosophila melanogaster. The experiment in a line: Insecticidal activity against first-instar larval stage of Drosophila melanogaster fed with artificial diet containing compound assessed as mortality at 18.3 umol/ml measured after 96 hr. The class given is functional.
The subject of test [5] is Drosophila melanogaster. The experiment in a line: Insecticidal activity against first-instar larval stage of Drosophila melanogaster fed with artificial diet containing compound assessed as mortality at 18.3 umol/ml measured after 72 hr (reference value: 0%). The format is functional.
For test [6], the system named is Drosophila melanogaster. The experiment in a line: Insecticidal activity against first-instar larval stage of Drosophila melanogaster fed with artificial diet containing compound assessed as mortality at 37.6 umol/ml measured after 120 hr. The class given is functional.
The test system of test [7] is Drosophila melanogaster. The experiment in a line: Insecticidal activity against first-instar larval stage of Drosophila melanogaster fed with artificial diet containing compound assessed as mortality at 37.6 umol/ml measured after 24 hr (reference value: 0%). The class given is functional.
Test [8] deals with Drosophila melanogaster. The experiment in a line: Insecticidal activity against first-instar larval stage of Drosophila melanogaster fed with artificial diet containing compound assessed as mortality at 8.3 umol/ml measured after 96 hr. The class given is functional.
The test system of test [9] is Drosophila melanogaster. The experiment in a line: Insecticidal activity against first-instar larval stage of Drosophila melanogaster fed with artificial diet containing compound assessed as mortality at 8.3 umol/ml measured after 72 hr (reference value: 0%). The format is functional.
Test [10] concerns Drosophila melanogaster. The experiment in a line: Insecticidal activity against first-instar larval stage of Drosophila melanogaster fed with artificial diet containing compound assessed as mortality at 8.3 umol/ml measured after 24 hr (reference value: 0%). The format is functional.
The subject of test [11] is Drosophila melanogaster. The experiment in a line: Insecticidal activity against first-instar larval stage of Drosophila melanogaster fed with artificial diet containing compound assessed as mortality at 37.6 umol/ml measured after 48 hr (reference value: 0%). The format is functional.
For test [12], the system named is Drosophila melanogaster. The experiment in a line: Insecticidal activity against first-instar larval stage of Drosophila melanogaster fed with artificial diet containing compound assessed as mortality at 18.3 umol/ml measured after 144 hr. The class given is functional.
The test system of test [13] is Drosophila melanogaster. The experiment in a line: Insecticidal activity against first-instar larval stage of Drosophila melanogaster fed with artificial diet containing compound assessed as mortality at 18.3 umol/ml measured after 120 hr. The class given is functional.
Test [14] deals with Drosophila melanogaster. The experiment in a line: Insecticidal activity against first-instar larval stage of Drosophila melanogaster fed with artificial diet containing compound assessed as mortality at 37.6 umol/ml measured after 96 hr. The format is functional.
Test [15] deals with Drosophila melanogaster. The experiment in a line: Insecticidal activity against first-instar larval stage of Drosophila melanogaster fed with artificial diet containing compound assessed as mortality at 8.3 umol/ml measured after 144 hr. The class given is functional.
Test [16] has as its system Drosophila melanogaster. The experiment in a line: Insecticidal activity against first-instar larval stage of Drosophila melanogaster fed with artificial diet containing compound assessed as mortality at 18.3 umol/ml measured after 24 hr (reference value: 0%). The format is functional.
Test [17] relates to Drosophila melanogaster. The experiment in a line: Insecticidal activity against first-instar larval stage of Drosophila melanogaster fed with artificial diet containing compound assessed as mortality at 37.6 umol/ml measured after 72 hr (reference value: 3.33 +/-0.33%). The class given is functional.
Test [18] relates to Drosophila melanogaster. The experiment in a line: Insecticidal activity against first-instar larval stage of Drosophila melanogaster fed with artificial diet containing compound assessed as mortality at 37.6 umol/ml measured after 144 hr. The class given is functional.
For test [19], the system named is Spodoptera frugiperda. The experiment in a line: Insecticidal activity against Spodoptera frugiperda (fall armyworm) larvae assessed as mortality at 25 ppm. The format is functional.
The target in test [20] is Acetylcholinesterase (Spodoptera litura) (UniProt C5IU80). The experiment in a line: Inhibition of acetylcholinesterase in Spodoptera frugiperda (fall armyworm) at 15 ppm.
The test system of test [21] is Drosophila melanogaster. The experiment in a line: Insecticidal activity against first-instar larval stage of Drosophila melanogaster fed with artificial diet containing compound assessed as mortality measured after 24 hr. The class given is functional. Conditions: read-out: LD50 (the source's name).
The subject of test [22] is Drosophila melanogaster. The experiment in a line: Insecticidal activity against first-instar larval stage of Drosophila melanogaster fed with artificial diet containing compound assessed as mortality measured after 72 hr. The note with it: read-out: LD50 (the source's name). The class given is functional.

Chain of Acetylcholinesterase (Spodoptera litura) (C5IU80 as listed by the source): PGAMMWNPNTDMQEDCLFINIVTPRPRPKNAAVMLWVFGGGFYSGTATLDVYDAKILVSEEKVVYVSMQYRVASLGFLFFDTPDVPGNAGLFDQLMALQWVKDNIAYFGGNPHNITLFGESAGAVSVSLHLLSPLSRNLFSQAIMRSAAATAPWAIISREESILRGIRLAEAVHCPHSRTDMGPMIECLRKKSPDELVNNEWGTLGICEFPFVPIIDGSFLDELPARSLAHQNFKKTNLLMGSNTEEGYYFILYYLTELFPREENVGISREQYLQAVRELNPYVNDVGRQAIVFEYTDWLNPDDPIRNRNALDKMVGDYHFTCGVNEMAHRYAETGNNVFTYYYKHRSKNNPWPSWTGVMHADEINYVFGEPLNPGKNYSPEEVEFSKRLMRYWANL

On to `CC1=C2C[C@H](C(C)(O)CO)CC[C@@]2(C)CCC1=O` (stereo not given in full), for which the mortality in test [1] is listed as 10%; in test [2] it was 10%; in test [3], 10%; in test [4], 23%; in test [5], 0%; in test [6], 23%. Besides, the mortality in [7] was found to be 20%; in test [8], 10%; in test [9] it was 10%; in [10], 10%; in test [11], 20%; in test [12], 23%. For the same molecule, the mortality in test [13] amounted to 23%; in test [14], 23%; in test [15] it was 10%; in test [16] it was 10%; in test [17] it was 20%; in [18], 23%.
As for `CC(=O)OC[C@H]1C[C@@H](OC(C)=O)[C@@H](OC(C)=O)[C@@]2(C)[C@H](OC(=O)c3ccccc3)[C@@H](OC(C)=O)[C@@H]3[C@H](OC(C)=O)[C@]12OC3(C)C`, in test [19], the mortality at 25 ppm stood at 100%.
`CC(=O)OC[C@H]1C[C@@H](OC(C)=O)[C@@H](OC(C)=O)[C@@]2(C)[C@H](OC(=O)c3ccco3)[C@@H](OC(C)=O)[C@@H]3[C@H](OC(C)=O)[C@]12OC3(C)C`: in [19], the mortality at 25 ppm came out at 100%. Besides, in [20], the inhibition was 100%.
On to `C=C(C)[C@@H]1CC[C@@]2(C)CCC(O)C(C)=C2C1` (mixture of isomers), for which the mortality was 70% in [1]; 86.7% in [2]; 100% in test [5]; 90% in [7]; 100% in test [9]; 50% in test [10]. Also, the values for the mortality in test [11], in test [16] and in [17] were 96%, 70% and 100%, respectively. For the same molecule, the LC50 in [21] was 8.78 mM.
`C=C(C)[C@@H]1CC[C@@]2(C)CC[C@@H](O)C(C)=C2C1` [3ALPHA-HYDROXY-CYPERONE]: the mortality in test [1] is reported as 0%; in [2], 0%; in test [3] it was 0%; in [4] it was 3.3%; in [5] it was 3.3%; in test [6], 10%. Moreover, the mortality was 0% in test [7]; 0% in [8]; 0% in test [9]; 0% in test [10]; 6.7% in test [11]; 6.6% in test [12]. Also, the mortality in test [13] was 3.3%; in test [14] it was 10%; in [15], 0%; in [16], 0%; in test [17], 6.7%; in test [18], 10%.
Take `C=C(C)[C@@H]1CC[C@@]2(C)CC[C@H](O)C(C)=C2C1` [3BETA-HYDROXY-CYPERONE]: the mortality in test [1] was found to be 50%; in test [2], 73.3%; in test [5], 73.3%; in test [7], 80%; in test [9], 50%; in test [10], 20%. Also, the mortality in test [11] turned out to be 96%; in test [16], 36.7%; in [17], 100%. Besides, the LC50 in test [22] stood at 9.36 mM.
For the molecule `C=C(C)[C@@H]1CC[C@]2(C)CCC(=O)C[C@]2(O)C1` [5-HYDROXY-14-NOREUDESM-11-EN-3-ONE], the mortality in test [1] is 6.7%; in test [2], 6.7%; in [3] it was 16.6%; in test [4], 20%; in test [5] it was 13.3%; in [6], 23.3%. Besides, the mortality in [7] was found to be 13%; in [8] it was 6.6%; in test [9], 6.7%; in test [10], 0%; in [11] it was 13.3%; in test [12] it was 20%. Besides, the mortality in test [13] was determined as 20%; in [14], 23.3%; in [15], 16.6%; in test [16] it was 3.3%; in test [17] it was 16.6%; in [18] it was 23.3%.
`C=C(C)[C@@H]1CC[C@]2(C)CCC(=O)[C@H](C)[C@]2(O)C1` [5ALPHA-HYDROXY-14-EUDESM-11-EN-3-ONE]: the mortality in [1] turned out to be 0%; in [2], 0%; in test [3], 16.7%; in [4] it was 20%; in test [5], 13.3%; in test [6], 36.6%. Moreover, the mortality was 0% in test [7]; 16.7% in [8]; 0% in [9]; 0% in test [10]; 0% in [11]; 26.7% in test [12]. In addition, the mortality in test [13] was found to be 20%; in test [14], 36.6%; in [15], 23.3%; in [16], 0%; in [17], 33.3%; in test [18], 40%. Besides, in [22], the LC50 was 42.6 mM.
Consider `C=C(C)[C@@H]1CC[C@]2(C)CCC(=O)C(C)=C2C1` [(-)-10-EPI-ALPHA-CYPERONE], for which the mortality in test [1], in test [2], in test [5], in test [7], in test [9] and in test [10] was 0% each time. Also, the values for the mortality in test [11], in test [16] and in test [17] were 0.11%, 0% and 0.11%, respectively.
As for `C=C(C)[C@@H]1CC[C@@]2(C)CCC(=O)C(C)=C2C1` [ALPHA-CYPERONE], the mortality amounted to 76.6% in test [1]; 100% in test [2]; 100% in test [5]; 96.7% in test [7]; 100% in test [9]; 70% in [10]. For the same molecule, the figures for the mortality in test [11], in test [16] and in test [17] were 100%, 83% and 100%, respectively. In addition, the LC50 in test [21] worked out at 4.99 mM.
